Source: ChEMBL document CHEMBL5512632, “Unlocking the potential of 1,4-naphthoquinones: A comprehensive review of their anticancer properties” (Eur J Med Chem, 2024)
Blank lines part the entries; values can stand above or below the compound they belong to.

Assays:
[1] = Antiproliferative activity against human A875 cells assessed as inhibition of cell growth incubated for 24 hrs by MTT reagent based ELISA; format: functional; details: A875, 24 h
MCF7 [2] = assay: Antiproliferative activity against human MCF7 cells assessed as inhibition of cell growth incubated for 24 hrs by MTT assay; format: functional, cell-based; details: MCF7, 24 h
HCT-116 [3] = assay: Antiproliferative activity against human HCT-116 cells assessed as inhibition of cell growth incubated for 24 hrs by MTT assay; format: functional, cell-based; details: HCT-116, 24 h
J82 = assay: Antiproliferative activity against human J82 cells assessed as inhibition of cell growth incubated for 72 hrs by MTT assay; format: functional, cell-based; details: J82, 72 h
HL-60 = assay: Antiproliferative activity against human HL-60 cells assessed as inhibition of cell growth incubated for 72 hrs by MTT assay; format: functional, cell-based; details: HL-60, 72 h
SK-MES-1 = assay: Antiproliferative activity against human SK-MES-1 cells assessed as inhibition of cell growth incubated for 72 hrs by MTT assay; format: functional, cell-based; details: SK-MES-1, 72 h
AGS = assay: Antiproliferative activity against human AGS cells assessed as inhibition of cell growth incubated for 72 hrs by MTT assay; format: functional, cell-based
SBcl2 = assay: Antiproliferative activity against human SBcl2 cells assessed as inhibition of cell growth incubated for 72 hrs by XTT assay; format: functional, cell-based; details: SBcl2, 72 h
[4] = Antiproliferative activity against human FS-1 [Human leukemia] cells assessed as inhibition of cell growth incubated for 72 hrs by XTT assay; format: functional, cell-based
WM164 = assay: Antiproliferative activity against human WM164 cells assessed as inhibition of cell growth incubated for 72 hrs by XTT assay; format: functional, cell-based; details: WM164, 72 h
[5] = Antiproliferative activity against human WM9 cells assessed as inhibition of cell growth incubated for 72 hrs by XTT assay; format: functional, cell-based; details: WM9, 72 h
MUGMel2 = assay: Antiproliferative activity against human MUG-Mel2 cells assessed as inhibition of cell growth incubated for 72 hrs by XTT assay; format: functional, cell-based; details: MUGMel2, 72 h
[6] = Antiproliferative activity against human A875 cells assessed as inhibition of cell growth incubated for 72 hrs by MTT reagent based microplate reader assay; format: functional; details: A875, 72 h
A549 = assay: Antiproliferative activity against human A549 cells assessed as inhibition of cell growth incubated for 72 hrs by MTT reagent based microplate reader assay; format: functional; details: A549, 72 h
SW872 = assay: Antiproliferative activity against human SW872 cells assessed as inhibition of cell growth incubated for 72 hrs by MTT reagent based microplate reader assay; format: functional; details: SW872, 72 h
HCT-8 = assay: Antiproliferative activity against human HCT-8 cells assessed as inhibition of cell growth incubated for 96 hrs by CCK-8 assay; format: functional, cell-based; details: HCT-8, 96 h
HCT-29 = assay: Antiproliferative activity against human HCT-29 cells assessed as inhibition of cell growth incubated for 96 hrs by CCK-8 assay; format: functional, cell-based; details: HCT-29, 96 h
DLD-1 = assay: Antiproliferative activity against human DLD-1 cells assessed as inhibition of cell growth incubated for 96 hrs by CCK-8 assay; format: functional, cell-based; details: DLD-1, 96 h
MCF7 [7] = assay: Cytotoxicity against human MCF7 cells incubated for 48 hrs by sulforhodamine B staining based spectrophotometric analysis; format: functional, cell-based; details: MCF7, 48 h
DU-145 = assay: Cytotoxicity against human DU-145 cells incubated for 48 hrs by sulforhodamine B staining based spectrophotometric analysis; format: functional, cell-based; details: DU-145, 48 h
HCT-15 = assay: Cytotoxicity against human HCT-15 cells incubated for 48 hrs by MTT assay; format: functional, cell-based; details: HCT-15, 48 h
A2780 = assay: Cytotoxicity against human A2780 cells incubated for 48 hrs by MTT assay; format: functional, cell-based; details: A2780, 48 h
HCT-116 [8] = assay: Cytotoxicity against human HCT-116 cells incubated for 48 hrs by MTT assay; format: functional, cell-based; details: HCT-116, 48 h
Bel-7402 = assay: Cytotoxicity against human Bel-7402 cells incubated for 48 hrs by MTT assay; format: functional, cell-based; details: Bel-7402, 48 h
MDA-MB-231 = assay: Cytotoxicity against human MDA-MB-231 cells incubated for 48 hrs by MTT assay; format: functional, cell-based; details: MDA-MB-231, 48 h
MDA-MB-468 = assay: Cytotoxicity against human MDA-MB-468 cells assessed as reduction in cell growth incubated upto 72 hrs by MTT assay; format: functional, cell-based; details: MDA-MB-468, 72 h
MCF7 [9] = assay: Cytotoxicity against human MCF7 cells assessed as reduction in cell growth incubated upto 72 hrs by MTT assay; format: functional, cell-based; details: MCF7, 72 h
MOLM-14 = assay: Cytotoxicity against human MOLM-14 cells incubated for 48 hrs; format: functional, cell-based; details: MOLM-14, 48 h
MV4-11 = assay: Cytotoxicity against human MV4-11 cells incubated for 48 hrs; format: functional, cell-based; details: MV4-11, 48 h

SMILES: CC(C)=CC[C@@H](OC(=O)Cc1ccc(Oc2ccccc2)cc1)C1=CC(=O)c2c(O)ccc(O)c2C1=O
IC50 [1]: 1.24 µM

IC50 (MCF7 [2]): 56 µM | IC50 (HCT-116 [3]): 75 µM
SMILES: CC1=C/C(=N\NC(=O)CCCCCCCCCC(=O)NN)c2ccccc2C1=O

IC50 (HL-60): 11.9 µM | IC50 (SK-MES-1): 6.4 µM | IC50 (AGS): 15.5 µM
SMILES: CC(=O)N(C1=C2NCCN=C2c2ccccc2C1=O)c1ccccc1
IC50 (J82): 2 µM

SMILES: CC(C)=C/C=C/C1=C(C(CC=C(C)C)C2=CC(=O)c3c(O)ccc(O)c3C2=O)C(=O)c2c(O)ccc(O)c2C1=O (centres undefined)
IC50 (SBcl2): 0.3 µM | IC50 [4]: 0.5 µM | IC50 (WM164): 1.7 µM | IC50 [5]: 0.6 µM | IC50 (MUGMel2): 0.7 µM

IC50 (A549): 1.62 µM | IC50 (SW872): 0.69 µM
SMILES: CC(C)=CC[C@@H](OC(=O)/C=C\c1cccc(C(F)(F)F)c1)C1=CC(=O)c2c(O)ccc(O)c2C1=O
IC50 [6]: 0.65 µM

IC50 (HCT-8): 2.16 µM | IC50 (HCT-29): 3.57 µM | IC50 (DLD-1): 10 µM
SMILES: COC(=O)C(CS[C@H](CC=C(C)C)C1=CC(=O)c2c(O)ccc(O)c2C1=O)NC(=O)c1cc(S(C)(=O)=O)ccc1OC (some centres undefined)

SMILES: O=C1C(Cl)=C(NCCN2CCN(C3=C(Cl)C(=O)c4ccccc4C3=O)CC2)C(=O)c2ccccc21
IC50 (MCF7 [7]): 2.16 µM | IC50 (DU-145): 2.52 µM

SMILES: CCCCCCCCC(OCCC(C)C)c1ccc2c(c1OC)/C(=N\O)C=C/C2=N\O (centres undefined)
IC50 (HCT-15): 36.4 µM | IC50 (A2780): 8.26 µM | IC50 (HCT-116 [8]): 21.5 µM | IC50 (Bel-7402): 5.11 µM | IC50 (MDA-MB-231): 0.66 µM

SMILES: CC1=C(Cl)C(=O)c2c(O)cccc2C1=O
IC50 (MDA-MB-468): 0.6 µM | IC50 (MCF7 [9]): 2 µM

SMILES: O=C1C(NCCO)=C(C2=C(NCCO)C(=O)c3ccccc3C2=O)C(=O)c2ccccc21
IC50 (MOLM-14): 0.16 µM | IC50 (MV4-11): 0.2 µM
